Results taken from US20070128217A1 (priority 2003, published 2007).

Experiments:
[1] = tested on: control sera (pooled serum of ten healthy LUMC hospital workers; commercial negative donor pooled serum from the Dutch bloodbank); type: binding, human; parameters: Binding of Control serum LUMC to linear peptides / Binding of Control serum Blood-bank to linear peptides / Binding of Control serum LUMC to looped peptides / Binding of Control Serum Blood-Bank to Looped peptides / Binding of Control serum LUMC to linear peptides of the protein M of SARS-CoV Urbani / Binding of Control serum Blood-bank to linear peptides of the protein M of SARS-CoV Urbani / Binding of Control serum LUMC to looped peptides of the protein M of SARS-CoV Urbani / Binding of Control Serum Blood-Bank to Looped peptides of the protein M of SARS-CoV Urbani: unit not given here
[2] = tested on: rabbit serum obtained by immunizing a rabbit with the SARS-CoV strain Frankfurt 1; type: binding; parameters: Binding of a rabbit serum to linear peptides / Binding of a rabbit serum to looped peptides / Rabbit serum linear peptides / Rabbit serum looped peptides / Binding of a rabbit serum to linear peptides of protein N of SARS-CoV Urbani (Rabbit serum linear peptides) / Binding of a rabbit serum to looped/cyclic peptides of protein N of SARS-CoV Urbani (Rabbit serum looped peptides): unit not given here
[3] = tested on: antibodies in sera from SARS patients (sera 1a, 1b, 2, 6, 37, 62, London, SARS-yellow, SARS-green); type: binding, human; parameters: Binding of serum 6 to linear peptides of protein X1 of SARS-CoV Urbani / Binding of serum 37 to linear peptides of protein X1 of SARS-CoV Urbani / Binding of serum 6 to looped/cyclic peptide (PEPSCAN-ELISA) / Binding of serum 37 to looped/cyclic peptide (PEPSCAN-ELISA) / Binding of serum 37 to looped/cyclic peptides of protein X1 of SARS-CoV Urbani / Binding of serum 6 to linear peptides of protein X2 / Binding of serum 37 to linear peptides of protein X2 / Binding of serum 37 to looped/cyclic peptides of protein X2 of SARS-CoV Urbani / Binding of serum 6 to linear peptides of protein M of SARS-CoV Urbani / Binding of serum 37 to linear peptides of protein M of SARS-CoV Urbani / Binding of serum 6 to looped/cyclic peptides of protein M of SARS-CoV Urbani / Binding of serum 37 to looped/cyclic peptides of protein M of SARS-CoV Urbani / Binding of serum 6 to linear peptides of protein X3 of SARS-CoV Urbani / Binding of serum 37 to linear peptides of protein X3 of SARS-CoV Urbani / Binding of serum 37 to looped/cyclic peptides of protein X3 of SARS-CoV Urbani / Binding of serum 6 to linear peptides of protein X4 of SARS-CoV Urbani / Binding of serum 37 to linear peptides of protein X4 of SARS-CoV Urbani / Binding of serum 37 to looped/cyclic peptides of protein X4 of SARS-CoV Urbani / Binding of serum 6 to linear peptides of protein X5 of SARS-CoV Urbani / Binding of serum 37 to linear peptides of protein X5 of SARS-CoV Urbani / Binding of serum 37 to looped/cyclic peptides of protein X5 of SARS-CoV Urbani / Binding of serum 6 to linear peptides of protein N of SARS-CoV Urbani / Binding of serum 37 to linear peptides of protein N of SARS-CoV Urbani / Binding of serum 6 to linear peptide (PEPSCAN-ELISA) / Binding of serum 1a to looped/cyclic peptides of protein N of SARS-CoV Urbani / Binding of serum 1b to looped/cyclic peptides of protein N of SARS-CoV Urbani / Binding of serum 2 to looped/cyclic peptides of protein N of SARS-CoV Urbani / Binding of serum 6 to looped/cyclic peptides of protein N of SARS-CoV Urbani / Binding of serum 37 to looped/cyclic peptides of protein N of SARS-CoV Urbani / Binding of serum 62 to looped/cyclic peptides of protein N of SARS-CoV Urbani / Binding of serum London to looped/cyclic peptides of protein N of SARS-CoV Urbani / Binding of serum SARS-green to looped/cyclic peptides of protein N of SARS-CoV Urbani: unit not given here

Sequence | Binding of Control Serum Blood-Bank to Looped peptides [1] | Binding of Control serum Blood-bank to linear peptides [1] | Binding of Control serum LUMC to linear peptides [1] | Binding of Control serum LUMC to looped peptides [1] | Binding of a rabbit serum to linear peptides [2] | Binding of a rabbit serum to looped peptides [2] | Binding of serum 1a to linear peptides of protein X1 of SARS-CoV Urbani [3] | Binding of serum 1a to looped/cyclic peptides of protein X1 of SARS-CoV Urbani [3] | Binding of serum 1b to linear peptides of protein X1 of SARS-CoV Urbani [3] | Binding of serum 1b to looped/cyclic peptides of protein X1 of SARS-CoV Urbani [3] | Binding of serum 2 to linear peptides of protein X1 of SARS-CoV Urbani [3] | Binding of serum 2 to looped/cyclic peptides of protein X1 of SARS-CoV Urbani [3] | Binding of serum 6 to linear peptides of protein X1 of SARS-CoV Urbani [3] | Binding of serum 6 to looped/cyclic peptides of protein X1 of SARS-CoV Urbani [3] | Binding of serum 37 to linear peptides of protein X1 of SARS-CoV Urbani [3] | Binding of serum 37 to looped/cyclic peptides of protein X1 of SARS-CoV Urbani [3] | Binding of serum 62 to linear peptides of protein X1 of SARS-CoV Urbani [3] | Binding of serum 62 to looped/cyclic peptides of protein X1 of SARS-CoV Urbani [3] | Binding of serum London to linear peptides of protein X1 of SARS-CoV Urbani [3] | Binding of serum SARS-green to linear peptides of protein X1 of SARS-CoV Urbani [3] | also measured
HTYQLRARSVSPKLF | 0.8 | 1.0 | 0.9 | 0.7 | – | – | – | – | – | – | – | – | – | – | – | – | – | – | – | – | Recognition of the peptide by the rabbit serum [2]: recognized; Binding of serum 1a to linear peptides of protein X4 of SARS-CoV Urbani [3]: 0.7; Binding of serum 1a to looped/cyclic peptides of protein X4 of SARS-CoV Urbani [3]: 0.8; Binding of serum 1b to linear peptides of protein X4 of SARS-CoV Urbani [3]: 0.8; Binding of serum 1b to looped/cyclic peptides of protein X4 of SARS-CoV Urbani [3]: 0.5; Binding of serum 2 to linear peptides of protein X4 of SARS-CoV Urbani [3]: 0.6; Binding of serum 2 to looped/cyclic peptides of protein X4 of SARS-CoV Urbani [3]: 0.8; Binding of serum 6 to linear peptides of protein X4 of SARS-CoV Urbani [3]: 1.0; Binding of serum 6 to looped/cyclic peptides of protein X4 of SARS-CoV Urbani [3]: 0.8; Binding of serum 37 to linear peptides of protein X4 of SARS-CoV Urbani [3]: 1.0; Binding of serum 37 to looped/cyclic peptides of protein X4 of SARS-CoV Urbani [3]: 0.6; Binding of serum 62 to linear peptides of protein X4 of SARS-CoV Urbani [3]: 0.9; Binding of serum 62 to looped/cyclic peptides of protein X4 of SARS-CoV Urbani [3]: 0.6; Binding of serum London to linear peptides of protein X4 of SARS-CoV Urbani [3]: 0.8; Binding of serum London to looped/cyclic peptides of protein X4 of SARS-CoV Urbani [3]: 0.3; Binding of serum SARS-green to linear peptides of protein X4 of SARS-CoV Urbani [3]: 0.7; Binding of serum SARS-green to looped/cyclic peptides of protein X4 of SARS-CoV Urbani [3]: 0.4; Binding of serum SARS-yellow to linear peptides of protein X4 of SARS-CoV Urbani [3]: 0.5; Binding of serum SARS-yellow to looped/cyclic peptides of protein X4 of SARS-CoV Urbani [3]: 0.8
IDGSSGVANPAMDPI | 0.6 | 0.6 | 0.6 | 0.7 | 0.1 | 0.5 | 0.7 | 0.8 | 0.6 | 0.7 | 0.7 | 0.5 | 0.5 | 0.3 | 0.6 | 0.7 | 0.6 | 0.6 | 0.4 | 0.3 | Binding of serum SARS-green to looped/cyclic peptides of protein X1 of SARS-CoV Urbani [3]: 0.6; Binding of serum SARS-yellow to linear peptides of protein X1 of SARS-CoV Urbani [3]: 0.4; Binding of serum SARS-yellow to looped/cyclic peptides of protein X1 of SARS-CoV Urbani [3]: 0.4
IENATFFIFNKLVKD | 0.5 | 0.4 | 0.3 | 0.5 | 0.1 | 0.5 | 0.6 | 0.5 | 0.5 | 0.4 | 0.5 | 0.4 | 0.3 | 0.2 | 0.5 | 0.5 | 0.5 | 0.5 | 0.2 | 0.2 | Binding of serum London to looped/cyclic peptides of protein X1 of SARS-CoV Urbani [3]: 0.2; Binding of serum SARS-green to looped/cyclic peptides of protein X1 of SARS-CoV Urbani [3]: 0.1; Binding of serum SARS-yellow to linear peptides of protein X1 of SARS-CoV Urbani [3]: 0.4; Binding of serum SARS-yellow to looped/cyclic peptides of protein X1 of SARS-CoV Urbani [3]: 0.3
IHTIDGSSGVANPAM | 0.4 | 0.7 | 0.8 | 0.4 | 0.1 | 0.5 | 0.7 | 0.5 | 0.7 | 0.4 | 0.8 | 0.3 | 0.5 | 0.2 | 0.7 | 0.3 | 0.8 | 0.3 | 0.5 | 0.5 | Binding of serum London to looped/cyclic peptides of protein X1 of SARS-CoV Urbani [3]: 0.2; Binding of serum SARS-green to looped/cyclic peptides of protein X1 of SARS-CoV Urbani [3]: 0.3; Binding of serum SARS-yellow to linear peptides of protein X1 of SARS-CoV Urbani [3]: 0.6; Binding of serum SARS-yellow to looped/cyclic peptides of protein X1 of SARS-CoV Urbani [3]: 0.2
